Measured values published in US8822458B2, “Substituted oxazolidinones and their use in the field of blood coagulation” (Bayer Intellectual Property GmbH, priority 1999, dated 2014).
Blank lines part the entries; values can stand above or below the compound they belong to.

What was measured:
[1] = tested on: thrombus formation in arteriovenous shunt; assay: Arteriovenous shunt model (rat), antithrombotic activity; assay type: in vivo; conditions: po, read-out: ED50 [mg/kg] p.o.
Experimental: b) Determination of the Antithrombotic Activity (In Vivo) b.1) Arteriovenous Shunt Model (Rat) Fasting male rats (strain: HSD CPB:WU) having a weight of 200-250 g were anaesthetized using a Rompun/Ketavet solution (12 mg/kg/50 mg/kg). Thrombus formation was initiated in an arteriovenous shunt in accordance with the method described by Christopher N. Berry et al., Br. J. Pharmacol. (1994), 113, 1209-1214. To this end, the left jugular vein and the right carotid artery were exposed. The two vessels were connected by an extracorporeal shunt using a polyethylene tube (PE 60) of a length of 10 cm. […] The extracorporeal circulation was maintained for 15 minutes. The shunt was then removed and the nylon thread with the thrombus was weighed immediately. The weight of the nylon thread on its own had been determined before the experiment was started. Before the extracorporeal circulation was set up, the test substances were administered to the animals while awake either intravenously via the tail vein or orally using a pharyngeal tube.

human factor Xa (FXa) = human factor Xa (FXa) (Homo sapiens (Human), UniProt P00742); assay: Determination of the factor Xa inhibition (chromogenic substrate); assay type: biochemical
Sequence of human factor Xa (FXa) (P00742 235-488): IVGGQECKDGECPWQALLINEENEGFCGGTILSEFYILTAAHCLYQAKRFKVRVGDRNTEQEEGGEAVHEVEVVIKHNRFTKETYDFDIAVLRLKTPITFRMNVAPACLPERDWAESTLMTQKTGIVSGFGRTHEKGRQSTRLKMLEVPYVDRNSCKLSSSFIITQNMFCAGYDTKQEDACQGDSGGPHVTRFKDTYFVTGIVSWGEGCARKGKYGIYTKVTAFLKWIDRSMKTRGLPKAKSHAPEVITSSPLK
Sequence of human factor Xa (FXa) (P00742 41-179 partner): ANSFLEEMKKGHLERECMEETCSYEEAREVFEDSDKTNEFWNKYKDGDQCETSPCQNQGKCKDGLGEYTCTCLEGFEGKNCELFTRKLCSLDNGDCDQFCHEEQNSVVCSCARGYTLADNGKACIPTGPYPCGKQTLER
Experimental: Factor Xa cleaves p-nitroaniline from the chromogenic substrate. The determinations were carried out in microtitre plates as follows.
The test substances, in various concentrations, were dissolved in DMSO and incubated at 25° C. with human FXa (0.5 nmol/l dissolved in 50 mmol/l of tris buffer [C,C,C-tris(hydroxymethyl)-aminomethane], 150 mmol/l of NaCl, 0.1% BSA (bovine serum albumin), pH=8.3) for 10 minutes. Pure DMSO was used as control. The chromogenic substrate (150 μmol 11 of Pefachrome® FXa from Pentapharm) was then added.

SMILES: O=C(NC[C@H]1CN(c2ccc(N3CCOCC3=O)cc2)C(=O)O1)c1ccc(Cl)s1 [Example 44, 5-Chloro-N-({(5S)-2-oxo-3-[4-(3-oxo-4-morpholinyl)phenyl]-1,3-oxazolidin-5-yl}methyl)-2-thiophenecarboxamide]
- ED50 [1]: 3 mg/kg

- IC50 (human factor Xa (FXa); human FXa, table of Examples 48-57): 120 nM
SMILES: O=C(NC[C@H]1CN(c2ccc(N3CCN(C(=O)CO)CC3)c(F)c2)C(=O)O1)c1ccc(Cl)s1 [Example 48]

- IC50 (human factor Xa (FXa); human FXa 0.5 nmol/l, Pefachrome FXa substrate, 25° C., value printed in example text): 840 nM
SMILES: O=C(NC[C@H]1CN(c2ccc(S(=O)(=O)N3CCC3)cc2)C(=O)O1)c1ccc(Cl)s1 [Example 39, 5-Chloro-N-({(5S)-3-[4-(1-azetidinylsulphonyl)phenyl]-2-oxo-1,3-oxazolidin-5-yl}methyl)-2-thiophenecarboxannide]
